{"source": "patent US11570982B2", "about": "“Systems and methods for natural cryoprotectants for preservation of cells” (Membrane Protective Technologies, Inc., priority 2016, dated 2023)", "test": "Antioxidant activity (Trolox equivalent) of materials substituted for glycerol", "data": [{"smiles": "OCC(O)CO", "note": "[Glycerol, glycerol]", "values": [{"measurement": "Antioxidant (Trolox equivalent μM/g)", "result": 0, "unit": "µM/g"}]}]}
